These molecules were tested against T1, MAPKAPK2 Recombinant Human Protein (Homo sapiens, UniProt P49137) (assay: MK2 kinase assay (Z'-LYTE kinase assay kit)). Conditions: inhibition of MK2 biochemical activity; 90 min incubation at room temperature.
T1 construct: purchased ThermoFisher pv3317
Experimental: Materials and Reagents for Measuring Inhibition of MK2 Biochemical Activity: • 1) Assay plate: 384 Well Low Volume Black Round Bottom Polystyrene NBS Microplate (Corning, Cat.No. 4514) • 2) MK2 kinase assay kit: Z' LYTE KINASE ASSAY KIT (ThermoFisher, Cat.No. pv3177) • 3) MAPKAPK2 Recombinant Human Protein (ThermoFisher, Cat.No. pv3317) • 4) DMSO (Vetec, Cat.No. V900090) • 5) DTT (Sigma, Cat.No. D0632)
MK2 Kinase Assay Procedure: • 1) Dispense 5 μl Kinase/Peptide Mixture to each wells of 384-well plate • 2) Add 2.5 μl 4× Test Compound to each well • 3) Add 2.5 μl 4× ATP Solution to each well • 4) After 90 minutes incubation at room temperature, add 5 μl Development Solution to each well • 5) After 60 minutes incubation at room temperature, add 5 μl stop Solution to each well • 6) Measure the Coumarin (Ex. 400 nm, Em. 445 nm) and Fluorescein (Ex. 400 nm, Em. 520 nm) emission signals on an Envision plate reader (PerkinElmer)

T1 sequence (P49137 whole entry): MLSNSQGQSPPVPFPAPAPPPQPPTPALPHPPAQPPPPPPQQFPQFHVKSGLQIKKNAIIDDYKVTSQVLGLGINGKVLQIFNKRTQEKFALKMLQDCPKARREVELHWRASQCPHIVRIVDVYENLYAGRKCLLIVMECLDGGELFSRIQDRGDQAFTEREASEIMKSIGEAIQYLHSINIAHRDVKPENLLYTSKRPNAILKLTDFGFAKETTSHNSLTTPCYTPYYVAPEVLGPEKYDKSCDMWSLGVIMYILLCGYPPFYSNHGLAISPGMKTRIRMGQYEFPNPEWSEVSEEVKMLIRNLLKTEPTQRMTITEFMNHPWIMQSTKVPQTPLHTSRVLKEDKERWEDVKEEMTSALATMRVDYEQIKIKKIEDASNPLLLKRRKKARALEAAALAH

Row | Structure (SMILES) | IC50
1 | CN(C)[C@@H]1CC[C@@H](NC(=O)c2ccc3c(c2)Cn2cc(-c4ccc(C#N)cc4)cc2-c2nccn2-3)C1 [Example 123] | 300 to 400 nM
2 | CN(C)C1CCC(C(=O)Nc2ccc3c(c2)Cn2cc(-c4ccc(C#N)cc4)cc2-c2nccn2-3)C1 (stereo not shown) [Example 78] | 50 to 100 nM
3 | CC(C)(N)[C@H]1CC(=O)N(c2ccc3c(c2)Cn2cc(-c4ccc(C#N)cc4)cc2-c2nccn2-3)C1 [Example 52] | < 50 nM
4 | N#Cc1ccc(-c2cc3n(c2)Cc2cc(N4C[C@H](CO)NCC4=O)ccc2-n2ccnc2-3)cc1 [Example 80, (R)-4-(7-(5-(Hydroxymethyl)-2-oxopiperazin-1-yl)-9H-benzo[e]imidazo[2,1-c]pyrrolo[1,2-a][1,4]diazepin-12-yl)benzonitrile] | 50 to 100 nM
5 | CN1CC[C@H](NC(=O)c2ccc3c(c2)Cn2cc(-c4ccc(C#N)cc4)cc2-c2nccn2-3)C1 [Example 102] | < 50 nM
6 | N#Cc1ccc(-c2cc3n(c2)Cc2cc(N4C[C@@H](C5(N)CC5)CC4=O)ccc2-n2ccnc2-3)cc1 (stereo in doubt) [Example 49, (S)-4-(7-(4-(1-aminocyclopropyl)-2-oxopyrrolidin-1-yl)-9H-benzo[e]imidazo [2,1-c]pyrrolo[1,2-a][1,4]diazepin-12-yl)benzonitrile] | < 50 nM
7 | CN(C)C1CCN(C(=O)c2ccc3c(c2)Cn2cc(-c4ccc(C#N)cc4)cc2-c2nccn2-3)C1 (stereo not shown) [Example 103] | 200 to 300 nM
8 | N#Cc1ccc(-c2cc3n(c2)Cc2cc(N4C[C@@H](CN)OC4=O)ccc2-n2ccnc2-3)cc1 [Example 2] | 50 to 100 nM
9 | CN(C)C[C@H]1CC(=O)N(c2ccc3c(c2F)Cn2cc(-c4ccc(C#N)cc4)cc2-c2nccn2-3)C1 [Example 92, (R)-4-(7-(4-((Dimethylamino)methyl)-2-oxopyrrolidin-1-yl)-8-fluoro-9H-benzo[e]imidazo[2,1-c]pyrrolo[1,2-a][1,4]diazepin-12-yl)benzonitrile] | 50 to 100 nM
10 | N#Cc1ccc(-c2cc3n(c2)Cc2cc(N4CC(C5(CO)COC(=O)N5)CC4=O)ccc2-n2ccnc2-3)cc1 (stereo not shown) [Example 63, 4-(7-(4-(4-(Hydroxymethyl)-2-oxooxazolidin-4-yl)-2-oxopyrrolidin-1-yl)-9H-benzo[e]imidazo[2,1-c]pyrrolo[1,2-a][1,4]diazepin-12-yl)benzonitrile] | 50 to 100 nM
11 | CC(C)(N)C1CN(c2ccc3c(c2)Cn2cc(-c4ccc(C#N)cc4)cc2-c2nccn2-3)C(=O)O1 (stereo not shown) [Example 20] | < 50 nM
12 | CN1CCN(C(=O)c2ccc3c(c2)Cn2cc(-c4ccc(C#N)cc4)cc2-c2nccn2-3)CC1 [Example 107] | 200 to 300 nM
13 | CN(C)CCC1CCN(c2ccc3c(c2)Cn2cc(-c4ccc(C#N)cc4)cc2-c2nccn2-3)C1=O (stereo not shown) [Example 40, 4-(7-(3-(2-(Dimethylamino)ethyl)-2-oxopyrrolidin-1-yl)-9H-benzo[e]imidazo [2,1-c]pyrrolo[1,2-a][1,4]diazepin-12-yl)benzonitrile] | < 50 nM
14 | CN1CCN2C(=O)N(c3ccc4c(c3)Cn3cc(-c5ccc(C#N)cc5)cc3-c3nccn3-4)C[C@H]2C1 [Example 60, (R)-4-(7-(7-Methyl-3-oxohexahydroimidazo[1,5-a]pyrazin-2(3H)-yl)-9H-benzo[e]imidazo[2,1-c]pyrrolo[1,2-a][1,4]diazepin-12-yl)benzonitrile] | < 50 nM
15 | CC(C)(N)CNC(=O)c1ccc2c(c1)Cn1cc(-c3ccc(C#N)cc3)cc1-c1nccn1-2 [Example 111] | 200 to 300 nM
16 | Cc1nnc2n1-c1ccc(N3CCC(CCN(C)C)C3=O)cc1Cn1cc(-c3ccc(C#N)cc3)cc1-2 (stereo not shown) [Example 81, 4-(7-(3-(2-(Dimethylamino)ethyl)-2-oxopyrrolidin-1-yl)-3-methyl-9H-benzo[e]pyrrolo[1,2-a][1,2,4]triazolo[3,4-c][1,4]diazepin-12-yl)benzonitrile] | 50 to 100 nM
17 | CC(C)(N)C1CC(=O)N(c2ccc3c(c2)Cn2cc(-c4ccc(C#N)cc4)cc2-c2nccn2-3)C1 (stereo not shown) [Example 51] | < 50 nM
18 | CN(C)[C@H]1CC[C@H](NC(=O)c2ccc3c(c2)Cn2cc(-c4ccc(C#N)cc4)cc2-c2nccn2-3)C1 [Example 122] | 300 to 400 nM
19 | CN(C)[C@H]1C[C@@H](NC(=O)c2ccc3c(c2)Cn2cc(-c4ccc(C#N)cc4)cc2-c2nccn2-3)C1 [Example 127] | 100 to 200 nM
20 | CN1CC(N(C)C(=O)c2ccc3c(c2)Cn2cc(-c4ccc(C#N)cc4)cc2-c2nccn2-3)C1 [Example 132, 12-(4-Cyanophenyl)-N-methyl-N-(1-methylazetidin-3-yl)-9H-benzo[e]imidazo [2,1c]pyrrolo[1,2-a][1,4]diazepine-7-carboxamide] | 50 to 100 nM
21 | N#Cc1ccc(-c2cc3n(c2)Cc2cc(N4CCN(C5CC5)CC4=O)ccc2-n2ccnc2-3)cc1 [Example 31, 4-(7-(4-Cyclopropyl-2-oxopiperazin-1-yl)-9H-benzo[e]imidazo[2,1-c]pyrrolo [1,2-a][1,4]diazepin-12-yl)benzonitrile] | 50 to 100 nM
22 | C[N+](C)(C)C[C@H]1CC(=O)N(c2ccc3c(c2)Cn2cc(-c4ccc(C#N)cc4)cc2-c2nccn2-3)C1 [Example 18, (S)-1-(1-(12-(4-cyanophenyl)-9H-benzo[e]imidazo[2,1-c]pyrrolo[1,2-a][1,4]diazepin-7-yl)-5-oxopyrrolidin-3-yl)-N,N,N-trimethylmethanaminium iodide] | 50 to 100 nM

Row | Structure (SMILES) | IC50
23 | CN(C)C[C@@H]1CCCN1C(=O)c1ccc2c(c1)Cn1cc(-c3ccc(C#N)cc3)cc1-c1nccn1-2 [Example 114] | 100 to 200 nM
24 | Cc1nnc2n1CCN(C(=O)c1ccc3c(c1)Cn1cc(-c4ccc(C#N)cc4)cc1-c1nccn1-3)C2 [Example 108] | 200 to 300 nM
25 | CN1CC(C)(CNC(=O)c2ccc3c(c2)Cn2cc(-c4ccc(C#N)cc4)cc2-c2nccn2-3)C1 [Example 121] | 50 to 100 nM
26 | Cc1nnc2n1-c1ccc(N3CCC(CN(C)C)C3=O)cc1Cn1cc(-c3ccc(C#N)cc3)cc1-2 (stereo not shown) [Example 84] | 50 to 100 nM
27 | CN[C@H]1CC[C@H](N(C)C(=O)c2ccc3c(c2)Cn2cc(-c4ccc(C#N)cc4)cc2-c2nccn2-3)C1 [Example 133] | 200 to 300 nM
28 | CN1CC(C)(NC(=O)c2ccc3c(c2)Cn2cc(-c4ccc(C#N)cc4)cc2-c2nccn2-3)C1 [Example 129] | 100 to 200 nM
29 | CN(C)CC1CCN(C(=O)c2ccc3c(c2)Cn2cc(-c4ccc(C#N)cc4)cc2-c2nccn2-3)C1 (stereo not shown) [Example 112, 4-(7-(3-((dimethylamino)methyl)pyrrolidine-1-carbonyl)-9H-benzo[e]imidazo [2,1-c]pyrrolo[1,2-a][1,4]diazepin-12-yl)benzonitrile] | 50 to 100 nM
30 | CC1(CN2C(=O)CN(c3ccc4c(c3)Cn3cc(-c5ccc(C#N)cc5)cc3-c3nccn3-4)C2=O)CNC1 [Example 64, 4-(7-(3-((3-Methylazetidin-3-yl)methyl)-2,4-dioxoimidazolidin-1-yl)-9H-benzo[e]imidazo[2,1-c]pyrrolo[1,2-a][1,4]diazepin-12-yl)benzonitrile] | < 50 nM
31 | CN(C)C[C@H]1CCCN1C(=O)c1ccc2c(c1)Cn1cc(-c3ccc(C#N)cc3)cc1-c1nccn1-2 [Example 113] | 200 to 300 nM
32 | N#Cc1ccc(-c2cc3n(c2)Cc2cc(C(=O)NCCN4CCC4)ccc2-n2ccnc2-3)cc1 [Example 118] | 100 to 200 nM
33 | CN(CC(CN)CO)C(=O)c1ccc2c(c1)Cn1cc(-c3ccc(C#N)cc3)cc1-c1nccn1-2 (stereo not shown) [Example 136] | 50 to 100 nM
34 | CN(C)[C@@H]1CCCN(C(=O)c2ccc3c(c2)Cn2cc(-c4ccc(C#N)cc4)cc2-c2nccn2-3)C1 [Example 124] | 50 to 100 nM
35 | CN(CC1CNC1)C(=O)c1ccc2c(c1)Cn1cc(-c3ccc(C#N)cc3)cc1-c1nccn1-2 [Example 135] | 100 to 200 nM
36 | CN1CCCC1CNC(=O)c1ccc2c(c1)Cn1cc(-c3ccc(C#N)cc3)cc1-c1nccn1-2 (stereo not shown) [Example 106] | 100 to 200 nM
37 | CC1(C2CC(=O)N(c3ccc4c(c3)Cn3cc(-c5ccc(C#N)cc5)cc3-c3nccn3-4)C2)CCN1 (stereo not shown) [Example 62, 4-(7-(4-(2-methylazetidin-2-yl)-2-oxopyrrolidin-1-yl)-9H-benzo[e]imidazo[2,1-c]pyrrolo[1,2-a][1,4]diazepin-12-yl)benzonitrile] | < 50 nM
38 | CN1CC[C@@H](N(C)C(=O)c2ccc3c(c2)Cn2cc(-c4ccc(C#N)cc4)cc2-c2nccn2-3)C1 [Example 134] | 200 to 300 nM
39 | CN(C)[C@H]1CCCN(C(=O)c2ccc3c(c2)Cn2cc(-c4ccc(C#N)cc4)cc2-c2nccn2-3)C1 [Example 125] | 50 to 100 nM
40 | CN(C)CC1(C)CCN(c2ccc3c(c2)Cn2cc(-c4ccc(C#N)cc4)cc2-c2nccn2-3)C1=O (stereo not shown) [Example 39, 4-(7-(3-((Dimethylamino)methyl)-3-methyl-2-oxopyrrolidin-1-yl)-9H-benzo[e]imidazo[2,1-c]pyrrolo[1,2-a][1,4]diazepin-12-yl)benzonitrile] | 100 to 200 nM
41 | CN(C)C1CN(C(=O)c2ccc3c(c2)Cn2cc(-c4ccc(C#N)cc4)cc2-c2nccn2-3)C1 [Example 104] | 200 to 300 nM
42 | CC(C)(N)C1CCN(c2ccc3c(c2)Cn2cc(-c4ccc(C#N)cc4)cc2-c2nccn2-3)C1=O (stereo not shown) [Example 44, 4-(7-(3-(2-Aminopropan-2-yl)-2-oxopyrrolidin-1-yl)-9H-benzo[e]imidazo [2,1-c]pyrrolo[1,2-a][1,4]diazepin-12-yl)benzonitrile] | 50 to 100 nM
43 | N#Cc1ccc(-c2cc3n(c2)Cc2cc(N4C[C@@H](N)CC4=O)ccc2-n2ccnc2-3)cc1 [Example 32, (S)-4-(7-(4-Amino-2-oxopyrrolidin-1-yl)-9H-benzo[e]imidazo[2,1-c]pyrrolo [1,2-a][1,4]diazepin-12-yl)benzonitrile] | 50 to 100 nM

— patent US20240140958A1, “FUSED QUADRACYCLIC COMPOUNDS, COMPOSITIONS AND USES THEREOF” (Tabomedex Biosciences, Inc., priority 2021, published 2024)
